A value given as a limit tells only on which side of the number the result lay.

The first experiment has as its target T1, Chk1 (Homo sapiens, UniProt O14757).
T1 construct: purchased Upstate Biotechnology
T1 sequence (O14757 1-476): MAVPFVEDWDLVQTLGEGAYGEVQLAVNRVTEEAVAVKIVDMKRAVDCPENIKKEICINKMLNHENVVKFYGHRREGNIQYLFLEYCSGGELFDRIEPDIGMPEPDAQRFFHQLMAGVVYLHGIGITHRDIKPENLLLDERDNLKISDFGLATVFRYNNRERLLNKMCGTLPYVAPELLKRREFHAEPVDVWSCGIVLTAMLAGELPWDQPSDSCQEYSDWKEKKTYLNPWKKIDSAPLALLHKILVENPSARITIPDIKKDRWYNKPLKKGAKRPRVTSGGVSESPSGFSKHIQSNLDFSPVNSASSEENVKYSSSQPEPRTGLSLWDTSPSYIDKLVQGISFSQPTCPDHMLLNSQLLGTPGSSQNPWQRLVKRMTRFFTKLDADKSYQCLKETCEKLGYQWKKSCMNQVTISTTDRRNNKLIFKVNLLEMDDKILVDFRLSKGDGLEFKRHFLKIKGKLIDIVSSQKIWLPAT
The experiment is described as follows: Chk1 kinase assay: incorporation of γ-33P ATP into immobilized myelin basic protein. It counts as biochemical. The note with it: Table 11, Chk1 only; class symbols A-D; read-out: Chk1 IC50. The method, boiled down:
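Radiometric filter-free format: Chk1 10 nM, 10 μM ATP; Chk2 20 nM, 30 μM ATP; γ-33P ATP tracer; immobilized MBP substrate; Hepes pH 7.6, 10 mM MgCl2, 1 mM DTT; 1 h RT; 1% DMSO. Scintillation counting of washed plates. IC50/Ki from curve fit.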
For the molecule `Nc1ncc(-c2cccc(C(=O)NCc3ccc(-n4cccn4)cc3)c2)nc1C(=O)N[C@H]1CCCNC1` [Example 1033, 3-amino-N-[(3S)-piperidin-3-yl]-6-{3-[({[4-(1H-pyrazol-1-yl)phenyl]methyl}amino)carbonyl]phenyl}pyrazine-2-carboxamide], the half-inhibitory concentration (IC50) is under 50 nM.

Consider `Nc1ncc(-c2cccc(CNC(=O)Nc3ccc(Br)cc3)c2)nc1C(=O)N[C@H]1CCCNC1` [Example 895], for which the half-maximal inhibitory concentration (IC50) is under 50 nM.

Regarding `Nc1ncc(-c2cccc(CNS(=O)(=O)c3ccc4c(c3)CCO4)c2)nc1C(=O)N[C@H]1CCCNC1` [Example 905, 3-amino-6-(3-{[(2,3-dihydro-1-benzofuran-5-ylsulfonyl)amino]methyl}phenyl)-N-[(3S)-piperidin-3-yl]pyrazine-2-carboxamide], the IC50 is under 50 nM.

As for `Nc1ncc(-c2cccc(CNC(=O)Nc3ccc(OC(F)(F)F)cc3)c2)nc1C(=O)N[C@H]1CCCNC1` [Example 930, 3-amino-N-[(3S)-piperidin-3-yl]-6-[3-({[({4-[(trifluoromethyl)oxy]phenyl}amino)carbonyl]amino}methyl)phenyl]pyrazine-2-carboxamide], the IC50 is under 50 nM.

Consider `COc1ccc(CNC(=O)c2cccc(-c3cnc(N)c(C(=O)N[C@H]4CCCNC4)n3)c2)cc1OC` [Example 1042, 3-amino-6-{3-[({[3,4-bis(methyloxy)phenyl]methyl}amino)carbonyl]phenyl}-N-[(3S)-piperidin-3-yl]pyrazine-2-carboxamide], for which the IC50 is under 50 nM.

With `Cc1ccccc1CNC(=O)c1cccc(-c2cnc(N)c(C(=O)N[C@H]3CCCNC3)n2)c1` [Example 1035, 3-amino-6-[3-({[(2-methylphenyl)methyl]amino}carbonyl)phenyl]-N-[(3S)-piperidin-3-yl]pyrazine-2-carboxamide], the IC50 is under 50 nM.

Staying with this experiment, now noted: Table 11; Chk1 only; read-out: Chk1 IC50.
Consider `CNC(=O)c1nc(-c2cccc(CNC3CCc4cc(OCC#N)ccc43)c2)cnc1N` (stereo not shown) [Example 508, 3-amino-6-{3-[({5-[(cyanomethyl)oxy]-2,3-dihydro-1H-inden-1-yl}amino)methyl]phenyl}-N-methylpyrazine-2-carboxamide], for which the IC50 was in the range of 50 to 1000 nM.

Regarding `Nc1ncc(-c2cccc(CN[C@H]3CCc4ccccc43)c2)nc1-c1nc([C@H]2CCCNC2)n[nH]1` [Example 704, 5-(3-{[(1S)-2,3-dihydro-1H-inden-1-ylamino]methyl}phenyl)-3-{3-[(3S)-piperidin-3-yl]-1H-1,2,4-triazol-5-yl}pyrazin-2-amine], the IC50 is under 50 nM.

Regarding `CCOC(=O)C1CCN(Cc2nc(-c3cccc(C(=O)NCc4ccccc4)c3)cnc2N)CC1` [Example 695, ethyl 1-{[3-amino-6-(3-{[(phenylmethyl)amino]carbonyl}phenyl)pyrazin-2-yl]methyl}piperidine-4-carboxylate], the IC50 is at least 10000 nM.

Regarding `CC(C)(C)OC(=O)N1CCN(C(=O)c2nc(-c3cccc(C(=O)NCc4ccccc4)c3)cnc2N)CC1` [Example 592, 1,1-dimethylethyl 4-{[3-amino-6-(3-{[(phenylmethyl)amino]carbonyl}phenyl)pyrazin-2-yl]carbonyl}piperazine-1-carboxylate], the IC50 was at least 10000 nM.

For `CC(C)(C)c1nnc(-c2nc(-c3cccc(CN[C@H]4CCc5ccccc54)c3)cnc2N)[nH]1` [Example 582, 5-(3-{[(1S)-2,3-dihydro-1H-inden-1-ylamino]methyl}phenyl)-3-[5-(1,1-dimethylethyl)-4H-1,2,4-triazol-3-yl]pyrazin-2-amine], the IC50 was in the range of 50 to 1000 nM.

As for `Nc1ncc(-c2cccc(CN[C@H]3CCc4ccccc43)c2)nc1C(=O)c1ccccc1` [Example 546, [3-amino-6-(3-{[(1S)-2,3-dihydro-1H-inden-1-ylamino]methyl}phenyl)pyrazin-2-yl](phenyl)methanone], the concentration for half-maximal inhibition (IC50) lay within 50 to 1000 nM.

In the case of `NC(=O)c1nc(-c2cccc(CN[C@H]3CCc4ccccc43)c2)cnc1N` [Example 530, 3-amino-6-(3-{[(1S)-2,3-dihydro-1H-inden-1-ylamino]methyl}phenyl)pyrazine-2-carboxamide], the IC50 fell in the range of 50 to 1000 nM.

On to `CNC(=O)c1nc(-c2cccc(CNC3CCc4c(OCCN5CCOCC5)cccc43)c2)cnc1N` (stereo not shown) [Example 514, 3-amino-N-methyl-6-{3-[({4-[(2-morpholin-4-ylethyl)oxy]-2,3-dihydro-1H-inden-1-yl}amino)methyl]phenyl}pyrazine-2-carboxamide], for which the IC50 fell in the range of 50 to 1000 nM.

Turning to `CCOC(=O)[C@H](Cc1ccc(O)cc1)NC(=O)c1nc(-c2cccc(C(=O)NCc3ccccc3)c2)cnc1N` [Example 610, ethyl N-{[3-amino-6-(3-{[(phenylmethyl)amino]carbonyl}phenyl)pyrazin-2-yl]carbonyl}-L-tyrosinate], the IC50 is at least 10000 nM.

In the case of `CNC(=O)c1nc(-c2cccc(CNC3CCc4ccc(Cl)cc43)c2)cnc1N` (stereo not shown) [Example 485, 3-amino-6-(3-{[(6-chloro-2,3-dihydro-1H-inden-1-yl)amino]methyl}phenyl)-N-methylpyrazine-2-carboxamide], the IC50 fell in the range of 50 to 1000 nM.

As to `Cn1nc(-c2nc(-c3cccc(C(=O)N[C@H]4CCc5ccccc54)c3)cnc2N)nc1C1CCCNC1` (stereo partly drawn) [Example 735, 3-(5-amino-6-(1-methyl-5-piperidin-3-yl-1H-1,2,4-triazol-3-yl)pyrazin-2-yl]-N-[(1S)-2,3-dihydro-1H-inden-1-yl]benzamide], the IC50 lay within 50 to 1000 nM.

`Nc1ncc(-c2cccc(CO)c2)nc1-c1nnc(Cc2ccccc2)[nH]1` [Example 552, (3-{5-amino-6-[5-(phenylmethyl)-4H-1,2,4-triazol-3-yl]pyrazin-2-yl}phenyl)methanol]: the IC50 fell in the range of 1000 to 10000 nM.

For `Nc1ncc(-c2cccc(C(=O)NCc3ccc(OC(F)(F)F)cc3)c2)nc1C(=O)N[C@H]1CCNC1` [Example 744, 3-amino-N-[(3S)-pyrrolidin-3-yl]-6-(3-{[({4-[(trifluoromethyl)oxy]phenyl}methyl)amino]carbonyl}phenyl)pyrazine-2-carboxamide], the IC50 is under 50 nM.

The same experiment, now with this note: read-out: Chk1 IC50.
For `CNC(=O)c1nc(-c2cccc(CNC(=O)c3cc4ccccc4[nH]3)c2)cnc1N` [Example 334, N-[(3-{5-amino-6-[(methylamino)carbonyl]pyrazin-2-yl}phenyl)methyl]-1H-indole-2-carboxamide], the IC50 was 50 to 1000 nM.

On to `CNC(=O)c1nc(-c2cccc(C#N)c2)cnc1N` [Example 165, 3-amino-6-(3-cyanophenyl)-N-methylpyrazine-2-carboxamide], for which the IC50 was in the range of 1000 to 10000 nM.

In the case of `CNC(=O)c1nc(-c2cccc(C(=O)NCc3ccc(C)c(Cl)c3)c2)cnc1N` [Example 303, 3-amino-6-[3-({[(3-chloro-4-methylphenyl)methyl]amino}carbonyl)phenyl]-N-methylpyrazine-2-carboxamide], the IC50 is 50 to 1000 nM.

Regarding `CNC(=O)c1nc(-c2cccc(C(=O)NCc3ccc(N4CCN(C)CC4)cc3)c2)cnc1N` [Example 290, 3-amino-N-methyl-6-{3-[({[4-(4-methylpiperazin-1-yl)phenyl]methyl}amino)carbonyl]phenyl}pyrazine-2-carboxamide], the 50% inhibitory concentration (IC50) was in the range of 1000 to 10000 nM.

`CNC(=O)c1nc(-c2cccc(C(=O)N[C@H]3CCCc4ccccc43)c2)cnc1N` [Example 161, 3-amino-N-methyl-6-(3-{[(1S)-1,2,3,4-tetrahydronaphthalen-1-ylamino]carbonyl}phenyl)pyrazine-2-carboxamide]: the IC50 was 50 to 1000 nM.

Turning to `CCCNc1ncc(-c2ccccc2)nc1C(N)=O` [Example 40, 6-phenyl-3-(propylamino)pyrazine-2-carboxamide], the IC50 was at least 10000 nM.

As for `CNC(=O)c1nc(-c2cccc(OCCN3CCN(C)CC3)c2)cnc1N` [Example 192, 3-amino-N-methyl-6-(3-{[2-(4-methylpiperazin-1-yl)ethyl]oxy}phenyl)pyrazine-2-carboxamide], the IC50 lay in the range of 50 to 1000 nM.

Turning to `C/N=C(\C)c1cccc(-c2cnc(N)c(C(=O)NC)n2)c1` [Example 59, 3-amino-N-methyl-6-{3-[(1E)-N-methylethanimidoyl]phenyl}pyrazine-2-carboxamide], the IC50 is 1000 to 10000 nM.

As for `CNC(=O)c1nc(-c2cccc(C(=O)NCC3CN(Cc4ccccc4)CCO3)c2)cnc1N` (stereo not shown) [Example 204, 3-amino-N-methyl-6-{3-[({[4-(phenylmethyl)morpholin-2-yl]methyl}amino)carbonyl]phenyl}pyrazine-2-carboxamide], the IC50 lay within 50 to 1000 nM.

On to `CNC(=O)c1nc(-c2cccc(NC(=O)OC(C)(C)C)c2)cnc1N` [Example 321, 1,1-dimethylethyl (3-{5-amino-6-[(methylamino)carbonyl]pyrazin-2-yl}phenyl)carbamate], for which the IC50 was in the range of 1000 to 10000 nM.

In the case of `CCOc1ccccc1CNC(=O)c1cccc(-c2cnc(N)c(C(=O)NC)n2)c1` [Example 246, 3-amino-6-{3-[({[2-(ethyloxy)phenyl]methyl}amino)carbonyl]phenyl}-N-methylpyrazine-2-carboxamide], the IC50 fell in the range of 50 to 1000 nM.

As for `CNC(=O)c1nc(-c2cccc(CNCc3cccc(-c4ccccc4)c3)c2)cnc1N` [Example 384, 3-amino-6-(3-{[(biphenyl-3-ylmethyl)amino]methyl}phenyl)-N-methylpyrazine-2-carboxamide], the IC50 was in the range of 50 to 1000 nM.

The term IC50 denotes the concentration needed to halve the response being measured.

Values taken from patent publication US7704995B2 (Exelixis, Inc., priority 2003, dated 2010).
